Test results published in patent publication US9725414B2, “Fungicidal N-bicycloalkyl and N-tricycloalkyl pyrazole-4-(thio)carboxamide derivatives” (priority 2011, dated 2017).
Like-named read-outs stand apart in the source and are kept apart here.

Key:
Pyrenophora teres [1] = assay: Example E: in vivo preventive test on Pyrenophora teres (barley), DMF/emulsifier preparation; conditions: 500 ppm of active ingredient, evaluated 7-9 days after inoculation
Description: In Vivo Preventive Test on Pyrenophora teres (Barley) Solvent: 49 parts by weight of N,N-dimethylformamide Emulsifier: 1 part by weight of alkylaryl polyglycol ether To produce a suitable preparation of active compound, 1 part by weight of active compound is mixed with the stated amounts of solvent and emulsifier, and the concentrate is diluted with water to the desired concentration. To test for preventive activity, young plants are sprayed with the preparation of active compound at the stated rate of application. One day after this treatment, the plants are inoculated with an aqueous spore suspension of Pyrenophora teres. The plants remain for 48 hours in an incubation cabinet at 22° C. and a relative atmospheric humidity of 100%.

Alternaria solani = assay: Example C: in vivo preventive test on Alternaria solani (tomato); conditions: 500 ppm of active ingredient, evaluated 7 days after inoculation
Description: In Vivo Preventive Test on Alternaria solani (Tomato) Solvent: 49 parts by weight of N,N-dimethylformamide Emulsifier: 1 part by weight of alkylarylpolyglycolether To produce a suitable preparation of active compound, 1 part by weight of active compound is mixed with the stated amounts of solvent and emulsifier, and the concentrate is diluted with water to the desired concentration. To test for preventive activity, young plants are sprayed with the preparation of active compound at the stated rate of application. One day after this treatment, the plants are inoculated with an aqueous spore suspension of Alternaria solani. The plants remain for one day in an incubation cabinet at approximately 22° C. and a relative atmospheric humidity of 100%. Then the plants are placed in an incubation cabinet at approximately 20° C. and a relative atmospheric humidity of 96%.

Puccinia recondita = assay: Example M: in vivo preventive test on Puccinia recondita (brown rust on wheat); conditions: 500 ppm of active ingredient, grading 12 days after contamination
Description: In Vivo Preventive Test on Puccinia recondita (Brown Rust on Wheat) […] Wheat plants (“Scipion” variety), sown in starter cups on a 50/50 peat soil pozzolana substrate and grown at 22° C., are treated at the 1 leaf stage (10 cm height) by spraying with the active ingredient prepared as described above. Plants, used as controls, are treated with the mixture of acetone/tween/DMSO/water not containing the active material. After 24 hours, the plants are contaminated by spraying the leaves with an aqueous suspension of Puccinia recondite spores (100 000 spores per mL). The spores are collected from an infected plant and are suspended in water containing 2.5 mL/L of Tween 80 at 10%. […] Grading (% of efficacy) is carried out 12 days after the contamination, in comparison with the control plants.

Sphaerotheca fuliginea = assay: Example B: in vivo preventive test on Sphaerotheca fuliginea (powdery mildew on cucurbits), gherkin plants; conditions: 500 ppm of active ingredient, grading 12 days after contamination
Description: In Vivo Preventive Test on Sphaerotheca fuliginea (Powdery Mildew on Cucurbits) […] Gherkin plants (“Vert petit de Paris” variety), sown in starter cups on a 50/50 peat soil-pozzolana substrate and grown at 24° C. are treated at the Z11 cotyledon stage by spraying with the active ingredient prepared as described above. Plants, used as controls, are treated with the mixture of acetone/tween/DMSO/water not containing the active material. After 24 hours, the plants are contaminated by spraying the cotyledons with an aqueous suspension of Sphaerotheca fuliginea spores (100 000 spores per mL). The spores are collected from infected plants.

Pyrenophora teres [2] = assay: Example F: in vivo preventive test on Pyrenophora teres (barley), acetone/tween/DMSO preparation; conditions: 500 ppm of active ingredient, barley, grading 14 days after contamination
Description: In Vivo Preventive Test on Pyrenophora teres (Barley) […] Barley plants (“Plaisant” variety), sown in starter cups on a 50/50 peat soil pozzolana substrate and grown at 22° C., are treated at the 1 leaf stage (10 cm height) by spraying with the active ingredient prepared as described above. Plants, used as controls, are treated with the mixture of acetone/tween/DMSO/water not containing the active material. After 24 hours, the plants are contaminated by spraying the leaves with an aqueous suspension of Pyrenophora teres spores (12 000 spores per mL). The spores are collected from a 12-day-old culture. […] Grading (% of efficacy) is carried out 14 days after the contamination, in comparison with the control plants.

Septoria tritici = assay: Example I: in vivo preventive test on Septoria tritici (wheat), acetone/tween/DMSO preparation; conditions: 500 ppm of active ingredient, grading 24 days after contamination
Description: In Vivo Preventive Test on Septoria tritici (Wheat) […] Wheat plants (“Scipion” variety), sown in starter cups on a 50/50 peat soil pozzolana substrate and grown at 22° C., are treated at the 1 leaf stage (10 cm height) by spraying with the active ingredient prepared as described above. Plants, used as controls, are treated with the mixture of acetone/tween/DMSO/water not containing the active material. After 24 hours, the plants are contaminated by spraying the leaves with an aqueous suspension of cryopreserved Septoria tritici spores (500 000 spores per mL). The contaminated wheat plants are incubated for 72 hours at 18° C. and at 100% relative humidity, and then for 21 days at 90% relative humidity. Grading (% of efficacy) is carried out 24 days after the contamination, in comparison with the control plants.

[3] = log P by HPLC on reversed-phase column (C 18), EEC Directive 79831 Annex V.A8; type: physicochemical
Description: In table 1, the log P values were determined in accordance with EEC Directive 79831 Annex V.A8 by HPLC (High Performance Liquid Chromatography) on a reversed-phase column (C 18), using the method described below: Temperature: 40° C.; Mobile phases: 0.1% aqueous formic acid and acetonitrile; linear gradient from 10% acetonitrile to 90% acetonitrile. Calibration was carried out using unbranched alkan-2-ones (comprising 3 to 16 carbon atoms) with known log P values (determination of the log P values by the retention times using linear interpolation between two successive alkanones). lambda-max-values were determined using UV-spectra from 200 nm to 400 nm and the peak values of the chromatographic signals.

[4] = HPLC reversed-phase C 18, 40° C., 0.1% aqueous formic acid and acetonitrile gradient, several values = mixture of two or more isomers

logP [3] | SMILES | Efficacy (Pyrenophora teres [1]) | Efficacy (Alternaria solani) | further results
 | Cn1cc(C(=O)N(C2CC2)C2CCC3CCCC3C2)c(C(F)F)n1 (mixture of isomers) [Example 23] | 100% | 80% | Efficacy (Puccinia recondita): 81%; Efficacy (Sphaerotheca fuliginea): 83%
 | Cn1cc(C(=O)NC2CCCC3CCCCC32)c(C(F)F)n1 (mixture of isomers) [Example 29] |  |  | Efficacy (Sphaerotheca fuliginea): 95%
 | Cn1nc(C(F)F)c(C(=O)NC2CCCC3CCCCC32)c1Cl (mixture of isomers) [Example 30] |  |  | Efficacy (Sphaerotheca fuliginea): 100%
 | Cn1cc(C(=O)N(C2CC2)C2CCCC3CCCCC32)c(C(F)F)n1 (mixture of isomers) [Example 33] |  |  | Efficacy (Pyrenophora teres [2]): 100%; Efficacy (Septoria tritici): 92%; Efficacy (Sphaerotheca fuliginea): 94%
 | Cn1nc(C(F)F)c(C(=O)NC2CCC3CCCCC3C2)c1Cl (mixture of isomers) [Example 34] | 70% | 95% | 
 | Cn1nc(C(F)F)c(C(=O)NC2CCC3CCCCC3C2)c1F (mixture of isomers) [Example 35] |  | 80% | 
 | Cn1cc(C(=O)N(C2CC2)C2CCC3CCCCC3C2)c(C(F)F)n1 (mixture of isomers) [Example 36] | 100% | 95% | 
 | Cn1nc(C(F)F)c(C(=O)N(C2CC2)C2CCC3CCCCC3C2)c1Cl (mixture of isomers) [Example 37] | 100% | 95% | 
3.76 | Cc1nn(C)c(F)c1C(=O)NC1CCCC2C1C(C)CC2(C)C (centres unmarked) [Example 15] | 100% | 89% | 
4.49 | CC1CC(C)(C)C2CCCC(NC(=O)c3c(C(F)F)nn(C)c3Cl)C12 (centres unmarked) [Example 16] | 100% |  | 
4.00 | CC1CC(C)(C)C2CCCC(NC(=O)c3cn(C)nc3C(F)(F)F)C12 (centres unmarked) [Example 17] | 95% | 94% | 
4.90 | Cn1nc(C(F)F)c(C(=S)N(C2CC2)C2CCC3CCCC3C2)c1F (centres unmarked) [Example 24] | 95% |  | 
4.83 | CC(C)N(C(=O)c1c(C(F)F)nn(C)c1Cl)C1CCCC2CCCCC21 (centres unmarked) [Example 26] |  |  | 
4.58 | CC(C)N(C(=O)c1c(C(F)F)nn(C)c1F)C1CCCC2CCCCC21 (centres unmarked) [Example 27] |  |  | 
4.41 | Cn1nc(C(F)F)c(C(=S)NC2CCCC3CCCCC32)c1F (centres unmarked) [Example 28] | 95% | 70% | 
3.92 | Cn1nc(C(F)F)c(C(=O)NC2C3(C)CCC(C3)C2(C)C)c1Cl (centres unmarked) [Example 39] |  |  | 
3.70 | Cn1nc(C(F)F)c(C(=O)NC2C3(C)CCC(C3)C2(C)C)c1F (centres unmarked) [Example 40] |  |  | 
3.35 | Cn1cc(C(=O)NC2C3(C)CCC(C3)C2(C)C)c(C(F)F)n1 (centres unmarked) [Example 41] |  |  | 
2.34 | Cn1nc(C(F)F)c(C(=O)NC2(C#N)CC3CCC2C3)c1Cl (centres unmarked) [Example 43] |  |  | 
1.97 | Cn1cc(C(=O)NC2(C#N)CC3CCC2C3)c(C(F)F)n1 (centres unmarked) [Example 44] |  |  | 

logP [3] | SMILES | Efficacy (Pyrenophora teres [1]) | Efficacy (Alternaria solani) | further results
2.16 | Cn1nc(C(F)F)c(C(=O)NC2(C#N)CC3CCC2C3)c1F (centres unmarked) [Example 45] |  |  | 
3.06 | Cn1cc(C(=O)NC23CC4CC(CC(C4)C2)C3)c(C(F)F)n1 [Example 55] |  |  | 
3.96 | Cn1nc(C(F)F)c(C(=O)N(CC2CCC3CCCC32)C2CC2)c1F (centres unmarked) [Example 58] |  |  | Efficacy (Pyrenophora teres [2]): 100%; Efficacy (Puccinia recondita): 98%
 | Cn1nc(C(F)F)c(C(=O)N(CC2CCC3CCCC3C2)C2CC2)c1Cl (centres unmarked) [Example 64] |  |  | Efficacy (Pyrenophora teres [2]): 71%; Efficacy (Septoria tritici): 93%; Efficacy (Puccinia recondita): 94%; Efficacy (Sphaerotheca fuliginea): 89%; logP [3, 4]: 4.59
4.82 | CC1C(CN(C(=O)c2c(C(F)F)nn(C)c2Cl)C2CC2)CC2CC1C2(C)C (centres unmarked) [Example 79] | 100% | 94% | 
4.25 | CC1C(CNC(=O)c2c(C(F)F)nn(C)c2Cl)CC2CC1C2(C)C (centres unmarked) [Example 80] | 100% | 100% | 
3.99 | CC1C(CNC(=O)c2c(C(F)F)nn(C)c2F)CC2CC1C2(C)C (centres unmarked) [Example 81] | 100% | 100% | 
3.62 | Cn1nc(C(F)F)c(C(=O)NCC2CCC3CC2C3(C)C)c1F (centres unmarked) [Example 84] | 100% | 95% | 
3.29 | Cn1cc(C(=O)NCC23CC4CC(CC(C4)C2)C3)c(C(F)F)n1 [Example 87] |  |  | Efficacy (Puccinia recondita): 75%; Efficacy (Sphaerotheca fuliginea): 79%
 | Cn1nc(C(F)F)c(C(=O)NCC23CC4CC(CC(C4)C2)C3)c1Cl [Example 88] |  | 100% | logP [3, 4]: 3.89
 | Cn1nc(C(F)F)c(C(=O)NCC23CC4CC(CC(C4)C2)C3)c1F [Example 89] |  | 95% | logP [3, 4]: 3.67
4.27 | CC(NC(=O)c1c(C(F)F)nn(C)c1Cl)C12CC3CC(CC(C3)C1)C2 (centres unmarked) [Example 106] | 90% | 100% | 
4.03 | CC(NC(=O)c1c(C(F)F)nn(C)c1F)C12CC3CC(CC(C3)C1)C2 (centres unmarked) [Example 107] | 80% | 95% | 
4.68 | Cn1nc(C(F)F)c(C(=O)N(CC23CC4CC(CC(C4)C2)C3)C2CC2)c1Cl [Example 108] |  |  | 
4.49 | Cn1nc(C(F)F)c(C(=O)N(CC23CC4CC(CC(C4)C2)C3)C2CC2)c1F [Example 109] |  |  | 
4.04 | COc1nn(C)c(F)c1C(=O)N(CC12CC3CC(CC(C3)C1)C2)C1CC1 [Example 110] |  |  | 
3.92 | Cn1cc(C(=O)N(CC23CC4CC(CC(C4)C2)C3)C2CC2)c(C(F)F)n1 [Example 111] |  |  | 
4.92 | CC1CC1N(C(=O)c1c(C(F)(F)F)nn(C)c1F)C(C)C1CC2CCC1C2 (centres unmarked) [Example 112] |  |  | 
 | CC(NC1CC1)C12CC3CC(CC(C3)C1)C2 (centres unmarked) [N-[1-(adamantan-1-yl)ethyl]cyclopropanamine] |  |  | chromatographic logP [3]: 5.82
